According to US12098153B2, “Small molecule inhibitors targeting Clostridioides difficile sporulation” (UNIVERSITY OF SOUTH FLORIDA, priority 2021, dated 2024):
Read-outs that look alike come from different tables or passages of the source.

Legend:
[1] = target: T1, SpoVD (CdSpoVD, CDR20291_2544; soluble construct SpovD 38-583) (Clostridioides difficile, UniProt A0A9R0BM53); test: Bacillin (bocillin) inhibition assay, SpoVD; assay type: biochemical
T1 construct: pETGSTSUMO vector (NheI/XhoI), E. coli BL21(DE3) pLysS; fusion tag removed with ULP1
Procedure: FIG. 2 is a table of IC50 values of select $-lactam antibiotics against SpoVD, their percentage inhibition of sporulation, and the concentration at which they were tested (½ MIC).
FIGS. 4A-4F show chemical structures of DPO sporulation inhibitors, their biochemical inhibition against SpoVD and their in vitro sporulation inhibition, wherein * indicates >50%, ** indicates >90%, and ***>95%.
(§1) Reactions were performed in a 96-well polystyrene plate with a final volume of 60 μl at 37° C. in 1× tris-buffered saline (20 mM Tris, 150 mM NaCl). […] Protein was then diluted and added to the well for a final concentration of 1 μM and incubated for 15 minutes at 37° C. 1 μL of bocillin (BOCILLIN™ FL Penicillin, Sodium Salt, Thermo Fisher Scientific) was added to each well for a final concentration of 20 μM, and incubated for 10 minutes at 37° C. Reactions were killed with 10 μL of 6×SDS loading buffer and pooled or directly loaded onto a 15-well Novex Wedgewell 8% Tris-Glycine Gels and ran at 175 V for ˜1 hour. Gels were then imaged (Biorad) for 6 seconds with the fluorescein blot filter setting and analyzed using ImageJ. All values were normalized to background intensity and divided by the average of three control intensities (no inhibitor) for % inhibition value. Assays were performed in duplicate or triplicate and IC50 values were calculated using a 3-parameter nonlinear regression.
(§2) The coding sequence corresponding to the soluble constructs of CDR20291_1067 (PBP3), CDR20291_0985 (PBP2) and CDR20291_2544 (CdSpoVD) were amplified from C. difficile R20291 genomic DNA The expression vector was modified from pETGST, in which the thrombin cleavage site was replaced by TEV (named pETGSTTEV) or ULP1 (named pETGSTSUMO) cleavage site. The vector was digested and the PCR fragments for each protein was inserted into the multi-clone site accordingly. SpovD 38-583 inserted into the NheI/XhoI site of the pETGSTSUMO vector. Cloned vector was then transformed into BL21(DE3) pLysS Escherichia coli (E. coli). Standard overnight cultures were grown in LB media containing chloramphenicol and kanamycin and used to inoculate 1 L LB cultures.
(§3) Cultures were grown until the optical density (OD600) reached ˜0.7. Protein expression was then induced with 0.5 mM isopropyl-β-d-thiogalactopyranoside (IPTG) overnight at 20° C. Cells were harvested via centrifugation at 4000×g for 10 minutes at 4° C. The cell pellet was suspended with a solution of 20 mM Tris pH 8.0, 200 mM NaCl, 20 mM imidazole, and one dissolved Thermo Scientific™ Pierce Protease Inhibitor Tablets. Cells were lysed with a sonicator using a 10 second sonication/15 second rest cycle for 15 minutes. Cell lysate was centrifuged at 45,000×g for 35 minutes and supernatant was loaded onto a HisTrap affinity column (GE Healthcare). A linear gradient of buffer B (20 mM Tris pH 8.0, 300 mM NaCl, 500 mM imidazole, and 10% glycerol) was applied to elute the recombinant protein which usually occurred at 30% buffer B. These fractions were pooled and buffer exchanged three times into protease buffer (20 mM Tris pH 8.0, 10% glycerol) using an Amicon Ultra centrifugal filter (Sigma-Aldrich). Purified His6-tagged TEV protease was added to all proteins at a 1:20 ratio except for CdSpoVD and incubated overnight at 4° C. Pure His6-tagged ULP1 protease was added to CdSpoVD at 1:20 ratio and incubated overnight at 4° C. The digested protein was re-loaded onto the HisTrap affinity column. Flowthrough was collected, concentrated, and loaded to a HiLoad 16/60 Superdex 75 size exclusion column (GE Healthcare) where it ran at a flow rate of 0.5 ml/min. Peak fractions were combined and purity assessed (>95%) with gel-electrophoresis. The identity of each enzyme was independently characterized with gel-electrophoresis, native-mass spectrometry, bocillin or nitrocefin binding, and/or X-ray crystallography.

[2] = target: T2, PBP3 (CDR20291_1067; soluble construct) (Clostridioides difficile, UniProt A0A9R0CE13); test: Bacillin (bocillin) inhibition assay, PBP3; assay type: biochemical; conditions: FIGS. 6A-6F; 1 μM protein, 15 min preincubation at 37° C., 20 μM bocillin
T2 construct: modified pETGST vector with TEV site, E. coli BL21(DE3) pLysS; tag removed with TEV
Procedure: FIGS. 6A-6F show the crystal structure of PBP3 and the chemical structures of DBO sporulation inhibitors, wherein * indicates >50%, ** indicates >90%, and ***>95%.
as §1, §2
as §3, with “The identity of each enzyme was independently characterized with gel-electrophoresis, native-mass spectrometry, bocillin or nitrocefin binding, and/or X-ray crystallography.” left out

[3] = FIGS. 4A-4F, 1 μM protein, 15 min preincubation at 37° C., 20 μM bocillin, read-out: SpoVD IC50
[4] = FIG. 2, 1 μM protein, 15 min preincubation at 37° C., 20 μM bocillin, read-out: SpoVD IC50

T1 sequence (A0A9R0BM53 entry or part of it): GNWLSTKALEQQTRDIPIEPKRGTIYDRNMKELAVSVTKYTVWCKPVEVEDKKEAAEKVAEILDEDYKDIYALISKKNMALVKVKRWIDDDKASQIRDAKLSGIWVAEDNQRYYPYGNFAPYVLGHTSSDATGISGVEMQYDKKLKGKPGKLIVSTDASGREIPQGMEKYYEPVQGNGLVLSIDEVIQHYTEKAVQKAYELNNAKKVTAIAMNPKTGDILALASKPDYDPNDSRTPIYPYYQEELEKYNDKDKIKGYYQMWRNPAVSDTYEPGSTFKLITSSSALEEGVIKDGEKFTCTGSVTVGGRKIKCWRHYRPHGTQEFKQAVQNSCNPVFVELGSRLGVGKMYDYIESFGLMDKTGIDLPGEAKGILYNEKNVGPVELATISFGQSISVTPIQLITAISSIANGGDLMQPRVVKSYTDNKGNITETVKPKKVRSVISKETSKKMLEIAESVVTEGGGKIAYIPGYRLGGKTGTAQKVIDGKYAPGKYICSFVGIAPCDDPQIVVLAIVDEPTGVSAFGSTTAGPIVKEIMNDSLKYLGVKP
T2 sequence (A0A9R0CE13 entry or part of it): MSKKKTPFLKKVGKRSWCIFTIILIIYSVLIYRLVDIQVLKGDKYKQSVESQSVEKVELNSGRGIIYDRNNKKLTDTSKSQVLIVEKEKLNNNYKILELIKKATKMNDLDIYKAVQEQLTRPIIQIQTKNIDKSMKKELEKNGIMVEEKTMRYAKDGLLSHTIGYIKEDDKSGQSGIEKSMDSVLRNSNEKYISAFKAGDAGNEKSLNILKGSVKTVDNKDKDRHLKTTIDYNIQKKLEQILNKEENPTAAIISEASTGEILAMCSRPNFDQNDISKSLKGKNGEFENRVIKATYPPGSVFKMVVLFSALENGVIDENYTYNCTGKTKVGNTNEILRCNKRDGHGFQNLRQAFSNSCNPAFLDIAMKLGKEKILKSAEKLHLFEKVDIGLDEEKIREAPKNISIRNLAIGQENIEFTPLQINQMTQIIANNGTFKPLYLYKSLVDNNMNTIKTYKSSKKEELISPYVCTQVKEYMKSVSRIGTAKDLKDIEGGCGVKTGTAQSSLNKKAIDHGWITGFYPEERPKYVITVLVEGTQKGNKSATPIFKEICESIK

| SMILES | IC50 [2] [µM] | IC50 [1, 4] [µM] | also measured |
| --- | --- | --- | --- |
| O=C(Nc1ccccc1)[C@H](NC(=O)[C@@H]1CC[C@@H]2CN1C(=O)N2OS(=O)(=O)O)c1ccccc1 [Spo9] | 4.86 |  | IC50 [1, 3]: 13 µM |
| CO[C@@]1(NC(=O)Cc2cccs2)C(=O)N2C(C(=O)O)=C(COC(N)=O)CS[C@@H]21 [Cefoxitin] |  | 0.94 |  |
| NC(=O)[C@@H]1CC[C@@H]2CN1C(=O)N2OS(=O)(=O)O [Avibactam] | 5.38 | 165 |  |
| O=C(CNC(=O)[C@@H]1CC[C@@H]2CN1C(=O)N2OS(=O)(=O)O)c1ccccc1 [Spo8] |  | 63.8 |  |
| Nc1nc(/C(=N/O)C(=O)N[C@@H]2C(=O)N3C(C(=O)O)=C(/C=C4\CCN([C@@H]5CCNC5)C4=O)CS[C@H]23)ns1 [Ceftobiprole] |  | 62.5 |  |
| CC(=O)OCC1=C(C(=O)O)N2C(=O)[C@@H](NC(=O)Cc3cccs3)[C@H]2SC1 [Cefalothin] |  |  | IC50 [1]: 0.27 µM |
| O=C(NCc1ccccc1)[C@@H]1CC[C@@H]2CN1C(=O)N2OS(=O)(=O)O [Spo7] |  | 53.1 |  |
| O=C(Nc1ccc(-n2cccn2)cc1)[C@@H]1CC[C@@H]2CN1C(=O)N2OS(=O)(=O)O [Spo12] | 0.69 |  |  |
| O=C(Nc1cccc2ccccc12)[C@@H]1CC[C@@H]2CN1C(=O)N2OS(=O)(=O)O [Spo11] | 2.24 |  |  |
| Cc1onc(-c2ccccc2Cl)c1C(=O)N[C@@H]1C(=O)N2[C@@H]1SC(C)(C)[C@@H]2C(=O)O [Cloxacillin] |  | 6.12 |  |
| CC(C)(O/N=C(\C(=O)N[C@@H]1C(=O)N2C(C(=O)[O-])=C(C[n+]3ccccc3)CS[C@H]12)c1csc(N)n1)C(=O)O [Ceftazidime] |  |  | IC50 [1]: 2.47 µM |
| O=C(Nc1ccccc1)[C@@H]1CC[C@@H]2CN1C(=O)N2OS(=O)(=O)O [Spo6] | 2.01 | 103 |  |
| CC1(C)S[C@@H]2[C@H](NC(=O)[C@H](N)c3ccccc3)C(=O)N2[C@H]1C(=O)O [Ampicillin] |  |  | IC50 [1]: 2.54 µM |
| CO/N=C(\C(=O)N[C@@H]1C(=O)N2C(C(=O)O)=C(COC(C)=O)CS[C@H]12)c1csc(N)n1 [Cefotaxime] |  | 7.83 |  |
| O=C(Nc1ccccc1)[C@@H](Cc1ccccc1)NC(=O)[C@@H]1CC[C@@H]2CN1C(=O)N2OS(=O)(=O)O [Spo10] |  |  | IC50 [1, 3]: 3.92 µM |
| C[C@H]1[C@H](NC(=O)/C(=N\OC(C)(C)C(=O)O)c2csc(N)n2)C(=O)N1S(=O)(=O)O [Aztreonam] |  |  | IC50 [1]: 1.36 µM |
